Literature values in paper PMC7395068, “The evolution of strategies to minimise the risk of human drug-induced liver injury (DILI) in drug discovery and development” (Archives of Toxicology, 2020).
Read-outs that look alike come from different tables or passages of the source.

How the values were obtained:
[1] = cited from earlier work
[2] = ref Chen 2016; cited from earlier work
[3] = test system: HepG2 cells, primary human hepatocytes; conditions: cited from earlier work
[4] = test system: rBsep; conditions: cited from earlier work
[5] = test system: THLE-Null and THLE-3A4 cells; conditions: In vitro Assay; ref Gustafsson 2014; cited from earlier work
[6] = test system: human hepatocytes; conditions: In vitro Assay; ref Xu 2008; cited from earlier work
[7] = test system: THLE or HepG2 cells, isolated mitochondria, BSEP; conditions: In vitro Assay; ref Aleo 2019; cited from earlier work
[8] = test system: primary human hepatocytes, NIH3T3 fibroblasts, BSEP, CYP3A4; conditions: In vitro Assay; ref Schadt 2015; cited from earlier work
[9] = test system: isolated mouse liver mitochondria; conditions: In vitro Assay; ref Porceddu 2012; cited from earlier work
[10] = test system: PHH; conditions: In vitro Assay; ref Proctor 2017; cited from earlier work
[11] = test system: hLiMTs; conditions: In vitro Assay; ref Proctor 2017; cited from earlier work
[12] = test system: HepG2 cells; conditions: In vitro Assay; ref O'Brien 2006; cited from earlier work
[13] = test system: PHH spheroids; conditions: In vitro Assay; ref Vorrink 2018; cited from earlier work
[14] = In vitro Assay, ref Garside 2014
[15] = In vitro Assay, ref Dawson 2012
[16] = assignment in Garside 2014, ref Garside 2014

Cn1c(=O)c2c(ncn2CC(O)CO)n(C)c1=O (stereo not shown) [dyphylline]
In vivo DILI ([1]; ref Garside 2014): -VE | DILI +VE (5-8), DILI -VE (-4) [2]: -VE | DILI severity category [2]: vNo-DILI-Concern | Cluster 1-6 +VE Assay [3, 14]: -VE

C[C@H](N[C@@H](CCc1ccccc1)C(=O)O)C(=O)N1CCC[C@H]1C(=O)O [enalaprilat]
In vivo DILI ([1]; in vivo): +VE | DILI +VE (5-8), DILI -VE (-4) [2]: -VE | DILI severity category [2]: Ambiguous DILI-concern | Cluster 1-6 +VE Assay [3]: -VE

O=c1[nH]cc(F)c(=O)[nH]1 [fluorouracil]
In vivo DILI ([1]; ref Garside 2014): +VE | DILI +VE (5-8), DILI -VE (-4) [2]: +VE | DILI severity category [2]: vLess-DILI-Concern | Cluster 1-6 +VE Assay [3, 14]: +VE

CC(=O)O[C@H]1C[C@@]2(C)[C@@H](C[C@@H](O)[C@H]3[C@@]4(C)CC[C@@H](O)[C@@H](C)[C@@H]4CC[C@@]32C)/C1=C(\CCC=C(C)C)C(=O)O [fusidic acid]
Inhibition of rBsep cutoff<1& cmax u>.2 [4, 15]: +VE | Inhibition of rBsep cutoff<3 [4, 15]: +VE | THLE-Null [5]: +VE | Cluster 1-6 +VE Assay [3, 14]: -VE

CCN(CC)CCNc1ccc(CO)c2sc3ccccc3c(=O)c12 [hycanthone]
Structural based (HCI) [6]: +VE | In vivo DILI ([1]; […]): +VE | In vivo DILI ([1]; ref Garside 2014): +VE | In vivo DILI ([1]; ref Xu 2008): +VE | Cluster 1-6 +VE Assay [3, 14]: +VE

CC[C@@H](C(N)=O)N1CCCC1=O [levetiracetam]
In vivo DILI ([1]; ref Garside 2014): +VE | DILI +VE (5-8), DILI -VE (-4) [2]: +VE | DILI severity category [2]: vLess-DILI-Concern | Cluster 1-6 +VE Assay [3, 14]: +VE

CC(Oc1c(Cl)cccc1Cl)C1=NCCN1 (stereo not shown) [lofexidine]
In vivo DILI [1, 16]: -VE | Cluster 1-6 +VE Assay, In vitro Assay ([3]; ref Garside 2014): -VE

CCCCc1nc(Cl)c(CO)n1Cc1ccc(-c2ccccc2-c2nn[nH]n2)cc1 [losartan]
Partition Hybrid HRM Score [7]: +VE | Ro2 Hybrid HRM Score [7]: +VE | Cellular toxicity (3T3 cells) [8]: -VE | Combined Assay [8]: +VE | GSH adduct HML [8]: +VE | Hepatocyte cellular toxicity [8]: +VE | MitoTox 3T3 [8]: -VE | TDI CYP3A4 [8]: -VE | hBSEP inhibition [8]: +VE | Cluster 1-6 +VE Assay [3, 14]: +VE

CC(=O)[C@H]1CC[C@H]2[C@@H]3C[C@H](C)C4=CC(=O)CC[C@]4(C)[C@H]3[C@@H](O)C[C@]12C [medrysone]
In vivo DILI [1, 16]: -VE | Cluster 1-6 +VE Assay, In vitro Assay ([3]; ref Garside 2014): +VE

O=C1c2c(O)ccc(O)c2C(=O)c2c(NCCNCCO)ccc(NCCNCCO)c21 [mitoxantrone]
Structural based (HCI) [6]: +VE | in vitro data EC2<=1x Cmax [9]: -VE | Cluster 1-6 +VE Assay [3, 14]: +VE

CNC(=O)Oc1ccc2c(c1)[C@]1(C)CCN(C)[C@@H]1N2C [physostigmine]
Inhibition of rBsep cutoff<3 [4, 15]: -VE | Inhibition of rBsep cutoff<1& cmax u>.2 [4]: -VE | In vivo DILI ([1]; ref Dawson 2012): -VE | In vivo DILI ([1]; ref Garside 2014): -VE | In vivo DILI ([1]; ref Gustafsson 2014): -VE | In vivo DILI ([1]; ref Vorrink 2018): -VE | THLE-Null [5]: -VE | THLE-Null/3A4 [5]: -VE | DILI +VE (5-8), DILI -VE (-4) [2]: -VE | DILI severity category [2]: vNo-DILI-Concern | Cluster 1-6 +VE Assay [3, 14]: -VE

CN(CCOc1ccc(CC2SC(=O)NC2=O)cc1)c1ccccn1 (stereo not shown) [rosiglitazone]
Inhibition of rBsep cutoff<1& cmax u>.2 [4, 15]: -VE | Inhibition of rBsep cutoff<3 [4, 15]: +VE | PHH ATP <100uM [10]: -VE | hLiMTs ATP <100uM [11]: +VE (IC50 threshold of 100 µM) | Structural based (HCI) [6]: -VE | Structural based (HCI) [12]: -VE | In vivo DILI ([1]; […]): -VE | In vivo DILI ([1]; ref Aleo 2019): +VE | In vivo DILI ([1]; ref Dawson 2012): +VE | In vivo DILI ([1]; ref Garside 2014): +VE | In vivo DILI ([1]; ref Gustafsson 2014): +VE | In vivo DILI ([1]; ref O'Brien 2006): -VE | In vivo DILI ([1]; ref Proctor 2017): +VE | In vivo DILI ([1]; ref Schadt 2015): +VE | In vivo DILI ([1]; ref Vorrink 2018): -VE | In vivo DILI ([1]; ref Williams 2019): +VE | In vivo DILI ([1]; ref Xu 2008): -VE | DILI +VE (5-8), DILI -VE (-4) [2]: +VE | DILI severity category [2]: vLess-DILI-Concern | hLiMTs ATP <20 x Cmax [13]: -VE | Cluster 1-6 +VE Assay [3, 14]: +VE

CC(C)(C)NCC(O)c1cc(O)cc(O)c1 (stereo not shown) [terbutaline]
In vivo DILI ([1]; ref Garside 2014): +VE | DILI +VE (5-8), DILI -VE (-4) [2]: +VE | DILI severity category [2]: vLess-DILI-Concern | Cluster 1-6 +VE Assay [3, 14]: +VE

CCCCNC(=O)NS(=O)(=O)c1ccc(C)cc1 [tolbutamide, reference compound]
Inhibition of rBsep cutoff<1& cmax u>.2 [4, 15]: -VE | Inhibition of rBsep cutoff<3 [4, 15]: -VE | Structural based (HCI) [12]: +VE | Cluster 1-6 +VE Assay [3, 14]: +VE
